Test results published in PubChem BioAssay AID248 (DTP/NCI, 2004).
“And” between values parts separate entries of the source, which are not always exact repeats. Identical values can stand only once. Toxic doses and inconclusive results are not listed. Rule as the data show it: active = T/C of 150% or more; inactive = T/C below 125%.

Test system: L1210 leukemia ip in BDF1 mice, survival T/C
Assay: NCI In Vivo Anticancer Drug Screen. Data for tumor model L1210 Leukemia (intraperitoneal) in B6D2F1 (BDF1) mice
Conditions: endpoint: mean survival time, higher = longer survival
Procedure, shortened: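 Mice bearing the transplanted tumor received compound or vehicle. Survival of the treated group was divided by that of the vehicle-treated control group to give the ratio.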

[1] = dose: 50.0 mg/kg/injection, schedule: Q01DX009 (ip), vehicle: saline with Tween-80
[2] = dose: 100.0 mg/kg/injection, schedule: Q01DX009 (ip), vehicle: saline with Tween-80
[3] = dose: 200.0 mg/kg/injection, schedule: Q01DX009 (ip), vehicle: saline with Tween-80
[4] = dose: 100.0 mg/kg/injection, schedule: Q04DX003 (ip), vehicle: saline
[5] = dose: 200.0 mg/kg/injection, schedule: Q04DX003 (ip), vehicle: saline
[6] = dose: 400.0 mg/kg/injection, schedule: Q04DX003 (ip), vehicle: saline
[7] = dose: 25.0 mg/kg/injection, schedule: Q04DX002 (ip), vehicle: saline with Tween-80
[8] = dose: 50.0 mg/kg/injection, schedule: Q04DX002 (ip), vehicle: saline with Tween-80
[9] = dose: 100.0 mg/kg/injection, schedule: Q04DX003 (ip), vehicle: saline with Tween-80
[10] = dose: 200.0 mg/kg/injection, schedule: Q04DX003 (ip), vehicle: saline with Tween-80
[11] = dose: 100.0 mg/kg/injection, schedule: Q01DX009 (ip), vehicle: Klucel (hydroxypropylcellulose) (HPC)
[12] = dose: 200.0 mg/kg/injection, schedule: Q01DX009 (ip), vehicle: Klucel (hydroxypropylcellulose) (HPC)
[13] = dose: 100.0 mg/kg/injection, schedule: Q01DX001 (ip), vehicle: carboxymethylcellulose (CMC)
[14] = dose: 200.0 mg/kg/injection, schedule: Q01DX001 (ip), vehicle: carboxymethylcellulose (CMC)
[15] = dose: 400.0 mg/kg/injection, schedule: Q01DX001 (ip), vehicle: carboxymethylcellulose (CMC)
[16] = dose: 100.0 mg/kg/injection, schedule: Q04DX003 (ip), vehicle: Klucel (hydroxypropylcellulose) (HPC)
[17] = dose: 200.0 mg/kg/injection, schedule: Q04DX003 (ip), vehicle: Klucel (hydroxypropylcellulose) (HPC)
[18] = dose: 75.0 mg/kg/injection, schedule: Q01DX001 (ip), vehicle: carboxymethylcellulose (CMC)
[19] = dose: 150.0 mg/kg/injection, schedule: Q01DX001 (ip), vehicle: carboxymethylcellulose (CMC)

Measured: T/C

NC(Cc1cnc(N=Nc2ccc(C(=O)O)cc2)[nH]1)C(=O)O (configuration not stated)
inactive: [1] 100 % of control | [2] 95 % of control | [3] 103 % of control

COCCOC(=O)CCCCC(=O)OCCOC
inactive: [4] 107 % of control | [5] 100 % of control | [6] 94 % of control

N#CC(C#N)c1c(F)c(F)c(C(F)(F)F)c(F)c1F
inactive: dose: 10.0 mg/kg/injection, schedule: Q04DX003 (ip), vehicle: Klucel (hydroxypropylcellulose) (HPC) 103 % of control | dose: 20.0 mg/kg/injection, schedule: Q01DX001 (ip), vehicle: Klucel (hydroxypropylcellulose) (HPC) 97 % of control | dose: 20.0 mg/kg/injection, schedule: Q04DX003 (ip), vehicle: Klucel (hydroxypropylcellulose) (HPC) 98 % of control | dose: 40.0 mg/kg/injection, schedule: Q01DX001 (ip), vehicle: Klucel (hydroxypropylcellulose) (HPC) 101 % of control | dose: 40.0 mg/kg/injection, schedule: Q04DX003 (ip), vehicle: Klucel (hydroxypropylcellulose) (HPC) 95 % of control

CC/C=N/Nc1ccnc(SCc2ccccc2)n1
inactive: dose: 100.0 mg/kg/injection, schedule: Q04DX003 (ip), vehicle: gum acacia 103 % of control | dose: 200.0 mg/kg/injection, schedule: Q04DX003 (ip), vehicle: gum acacia 97 % of control | dose: 400.0 mg/kg/injection, schedule: Q04DX003 (ip), vehicle: gum acacia 94 % of control

CC1=C2C(=CO[C@H](C)[C@H]2C)C(=O)C(C(=O)O)=C1O
inactive: dose: 12.5 mg/kg/injection, schedule: Q04DX002 (ip), vehicle: saline with Tween-80 88 % of control | [7] 103 % of control | [8] 102 % of control and 88 % of control

O=NN(CS(=O)(=O)O)c1ccccc1
inactive: [4] 98 % of control | [5] 103 % of control

N#CSc1c[nH]c2ccccc12
inactive: [1] 96 % of control | [2] 101 % of control | [9] 104 % of control | [10] 95 % of control

Cc1ccc(Cl)cc1NC(=O)Oc1ccc(C(C)(C)C)cc1Br
inactive: [11] 91 % of control | [12] 100 % of control | dose: 400.0 mg/kg/injection, schedule: Q01DX009 (ip), vehicle: Klucel (hydroxypropylcellulose) (HPC) 108 % of control

CCOC(=O)c1nc(SC)n(Cc2ccccc2)c1C(=O)OCC
inactive: [7] 94 % of control and 103 % of control | [8] 106 % of control and 91 % of control | dose: 100.0 mg/kg/injection, schedule: Q01DX001 (ip), vehicle: saline with Tween-80 95 % of control and 98 % of control | [9] 99 % of control | dose: 200.0 mg/kg/injection, schedule: Q01DX001 (ip), vehicle: saline with Tween-80 102 % of control and 91 % of control | [10] 100 % of control | dose: 400.0 mg/kg/injection, schedule: Q01DX001 (ip), vehicle: saline with Tween-80 95 % of control and 91 % of control | dose: 400.0 mg/kg/injection, schedule: Q04DX002 (ip), vehicle: saline with Tween-80 94 % of control and 101 % of control | dose: 400.0 mg/kg/injection, schedule: Q04DX003 (ip), vehicle: saline with Tween-80 99 % of control

CN(C)/N=N/c1ccn[nH]1
inactive: dose: 50.0 mg/kg/injection, schedule: Q01DX005 (ip), vehicle: saline 105 % of control

O=[N+]([O-])c1c(Cl)cc(Cl)c([N+](=O)[O-])c1-c1ccccc1
inactive: [13] 96 % of control | [14] 96 % of control | [15] 107 % of control

O=C(Nc1cccc2ccccc12)NC1CC1
inactive: dose: 100.0 mg/kg/injection, schedule: Q01DX009 (ip), vehicle: other 94 % of control | dose: 100.0 mg/kg/injection, schedule: Q04DX003 (ip), vehicle: other 97 % of control | dose: 200.0 mg/kg/injection, schedule: Q01DX009 (ip), vehicle: other 94 % of control | dose: 200.0 mg/kg/injection, schedule: Q04DX003 (ip), vehicle: other 96 % of control | dose: 400.0 mg/kg/injection, schedule: Q01DX009 (ip), vehicle: other 94 % of control | dose: 400.0 mg/kg/injection, schedule: Q04DX003 (ip), vehicle: other 87 % of control

COc1ccc(C(=O)CSc2cc[o+]cc2)cc1
inactive: dose: 100.0 mg/kg/injection, schedule: Q01DX001 (ip), vehicle: saline 95 % of control | [2] 94 % of control | [4] 95 % of control | dose: 200.0 mg/kg/injection, schedule: Q01DX001 (ip), vehicle: saline 97 % of control | [3] 104 % of control | [5] 92 % of control | dose: 400.0 mg/kg/injection, schedule: Q01DX001 (ip), vehicle: saline 106 % of control | dose: 400.0 mg/kg/injection, schedule: Q01DX009 (ip), vehicle: saline with Tween-80 90 % of control | [6] 97 % of control

N#Cc1ccccc1.N#Cc1ccccc1.[Cl][Pd][Cl]
inactive: dose: 50.0 mg/kg/injection, schedule: Q01DX009 (ip), vehicle: Klucel (hydroxypropylcellulose) (HPC) 95 % of control | [11] 95 % of control | [16] 94 % of control | [12] 101 % of control | [17] 102 % of control

CCN(CC)COC(=O)C(C)(C)C
inactive: [18] 103 % of control | [19] 94 % of control

CC(=O)Oc1ccc2ccccc2c1CN(Cc1c(OC(C)=O)ccc2ccccc12)C(C)=O
inactive: dose: 100.0 mg/kg/injection, schedule: Q01DX001 (ip), vehicle: other 96 % of control | dose: 400.0 mg/kg/injection, schedule: Q01DX001 (ip), vehicle: other 93 % of control

CCOc1ccc(NC(=O)c2c(Br)c(Br)c(Br)c(Br)c2C(=O)O)cc1
inactive: [11] 102 % of control | [12] 87 % of control

CCCCOP(=O)(OCCCC)N1CCCCC1
inactive: [7] 94 % of control | [8] 108 % of control | dose: 100.0 mg/kg/injection, schedule: Q04DX002 (ip), vehicle: saline with Tween-80 91 % of control

Nc1nc(Cl)c(N=Nc2ccccc2)c(=O)[nH]1
inactive: dose: 25.0 mg/kg/injection, schedule: Q01DX009 (ip), vehicle: carboxymethylcellulose (CMC) 97 % of control and 98 % of control | dose: 50.0 mg/kg/injection, schedule: Q01DX009 (ip), vehicle: carboxymethylcellulose (CMC) 93 % of control and 90 % of control | [13] 95 % of control and 102 % of control | dose: 100.0 mg/kg/injection, schedule: Q04DX002 (ip), vehicle: carboxymethylcellulose (CMC) 97 % of control and 89 % of control | dose: 100.0 mg/kg/injection, schedule: Q04DX003 (ip), vehicle: carboxymethylcellulose (CMC) 100 % of control and 108 % of control | [14] 98 % of control and 109 % of control | dose: 200.0 mg/kg/injection, schedule: Q04DX002 (ip), vehicle: carboxymethylcellulose (CMC) 93 % of control | dose: 200.0 mg/kg/injection, schedule: Q04DX003 (ip), vehicle: carboxymethylcellulose (CMC) 106 % of control and 113 % of control | [15] 95 % of control and 98 % of control | dose: 400.0 mg/kg/injection, schedule: Q04DX002 (ip), vehicle: carboxymethylcellulose (CMC) 93 % of control and 98 % of control | dose: 400.0 mg/kg/injection, schedule: Q04DX003 (ip), vehicle: carboxymethylcellulose (CMC) 100 % of control and 106 % of control

CCN(CC)CC(=O)NCC(CCN1CCCC1)(CC(C)C)c1cccc2ccccc12 (configuration not stated)
inactive: dose: 100.0 mg/kg/injection, schedule: Q04DX002 (ip), vehicle: saline 97 % of control | dose: 200.0 mg/kg/injection, schedule: Q04DX002 (ip), vehicle: saline 94 % of control

O=C(O)CNS(=O)(=O)c1ccccc1
inactive: dose: 100.0 mg/kg/injection, schedule: Q01DX009 (ip), vehicle: carboxymethylcellulose (CMC) 97 % of control | dose: 200.0 mg/kg/injection, schedule: Q01DX009 (ip), vehicle: carboxymethylcellulose (CMC) 101 % of control | dose: 400.0 mg/kg/injection, schedule: Q01DX009 (ip), vehicle: carboxymethylcellulose (CMC) 89 % of control

O=C(Nc1ccc(F)c(Cl)c1)Oc1cc(=O)oc2ccccc12
inactive: [16] 92 % of control | [17] 101 % of control | dose: 400.0 mg/kg/injection, schedule: Q04DX003 (ip), vehicle: Klucel (hydroxypropylcellulose) (HPC) 105 % of control

CC1(O)C=CCC1 (configuration not stated)
inactive: [18] 104 % of control | [19] 102 % of control

c1ccc2c(c1)C[N+]1(Cc3ccccc3-2)CC12CCCCC2
inactive: dose: 12.0 mg/kg/injection, schedule: Q01DX009 (ip), vehicle: saline 110 % of control | dose: 25.0 mg/kg/injection, schedule: Q01DX009 (ip), vehicle: saline 104 % of control | dose: 50.0 mg/kg/injection, schedule: Q01DX009 (ip), vehicle: saline 100 % of control
